Measurements: patent US6462089B1, “Method for correcting the vigilance disorders associated with myopathies” (priority 2000, dated 2002)

Tests used:
c-fos proto-oncogene = conditions: cats, awakening doses; Lin et al. PNAS 1996; cited from earlier work
[1] = test system: patients suffering from Steinert's disease (myotonic dystrophy); conditions: cited from earlier work
[2] = cited from earlier work
[3] = test system: patient suffering from Steinert's disease; assay: Epworth somnolence scale in a patient suffering from Steinert's disease; assay type: in vivo, human; conditions: score before treatment 20
Experimental: By way of example, in a patient suffering from Steinert's disease, which is characterized, inter alia, by a temporal atrophy, ptosis, a myotony associated with muscle weakness, behavioural disorders and somnolence (the start of which went back to 1988) with sleep paralyses, without hypnogogic hallucinations or attacks of cataplexy, a decrease was observed of 18 units on the Epworth somnolence scale (see Johns M. W. Sleep, 1991, 14, 540) after treatment with an oral dose of 100 mg per day of modafinil for six months, between February 1999 (score on the Epworth scale=20) and August 1999 (score on the Epworth scale=2).

dopamine = conditions: within the dose ranges which modify consciousness; cited from earlier work
[4] = test system: patients suffering from Steinert's disease; assay: Karolinska KSS somnolence scale in patients suffering from Steinert's disease; assay type: in vivo, human
From the text: In the second patient of this series, the telling morphotype and a myotony of both hands associated with muscular deficiency existed. Without treatment, diurnal hypersomnia was very pronounced (Epworth scale: 16).

[5] = test system: patients suffering from myotonic dystrophy; assay: Oral modafinil treatment of a series of patients with myotonic dystrophy and diurnal hypersomnia, subjective effect; assay type: in vivo, human; conditions: oral doses of between 100 and 400 mg/day; majority of patients

Structure (SMILES): C[C@H](N)Cc1ccccc1 [d-amphetamine]
- expression of c-fos proto-oncogene in the central dopaminergic projection zones (including the cortex) (c-fos proto-oncogene): highly expressed

Structure (SMILES): COC(=O)C(c1ccccc1)C1CCCCN1 (stereo not shown) [methylphenidate]
- expression of c-fos proto-oncogene in the central dopaminergic projection zones (including the cortex) (c-fos proto-oncogene): highly expressed
- level of consciousness ([1]; Van der Meché et al. 1986): improvement in the level of consciousness was observed

Structure (SMILES): NC(=O)C[S+]([O-])C(c1ccccc1)c1ccccc1 (stereo not shown) [modafinil, benzhydrylsulphinylacetamide]
- generalization of the effects with amphetamine ([2]; addictive substance discrimination tests): very weak
- self-administration and preference of place ([2]; in vivo): leads neither to self-administration nor to preference of place
- self-administration of cocaine ([2]; in vivo): does not modify
- score on the Epworth scale after treatment ([3]; oral dose of 100 mg per day for six months (August 1999)): 2
- decrease on the Epworth somnolence scale ([3]; oral dose of 100 mg per day for six months): 18 units
- effect on dopamine (dopamine): no effect
- personal and professional daily life ([4]; patient, dose 200 mg/day): considerable improvement
- somnolence score on the Karolinska KSS scale after treatment ([4]; patient, dose 200 mg/day, before: 8): 2
- diurnal somnolence attacks ([4]; second patient, dose 600 mg/day): partial resolution
- somnolence score on the Karolinska scale after treatment ([4]; second patient, dose 600 mg/day, before: 8): 4
- expression of c-fos proto-oncogene in the central dopaminergic projection zones (including the cortex) (c-fos proto-oncogene): not expressed
- effect of treatment on vigilance disorders and diurnal somnolence [5]: subjectively effective

Structure (SMILES): C#CCN(C)[C@H](C)Cc1ccccc1 [selegiline]
- effectiveness on diurnal hypersomnolence ([1]; dose of 20 mg/day, Antonini et al. 1997): ineffective
